Experiments:
[1] = Intestinal membrane permeation, MSM as enhancer, methylene blue as active (Example 8); format: in vitro ADME, porcine
Description: In this experiment we selected methylene blue as the species for which permeation enhancement was desired. As tissue model for this experiment we selected porcine intestinal membrane. A small glass vial was filled with test solution and capped with the test membrane (tissue layer of defined thickness). The membrane tissue was hold in place with a rubber O-ring and a screw cap of defined surface area opening. This test unit was immersed into a large glass vial filled with receptor medium. From this large glass vial, small sample receptor medium volumes were periodically removed for analysis.

[2] = Methylene blue permeation through MSM pre-treated porcine intestinal membrane (Example 17); format: in vitro ADME
Procedure: This experiment was designed to investigate if there is a long-lasting enhancement effect of MSM, i.e., if there is a long-lasting disruption of membrane permeability after the formula was removed or washed-out after application.
Methylene blue was the active. The tissue model was porcine intestinal membrane, which was pre-treated. In this experiment all membranes were soaked for 24 hours in a MSM containing pre-treatment solution. […] After the 24-hour soaking period, “Test A” membrane was thoroughly washed, while “Test B” membrane was only briefly rinsed. Those membrane specimens were then mounted as described earlier on methylene blue containing glass vials, which were then immersed as described earlier into a larger glass vial containing receptor medium containing. Only the MSM-enhanced donor solution contained, besides methylene blue, also MSM for enhancement purposes. • Control: No MSM in 24-hour pre-treatment, no MSM enhancer in donor • Test A: 24-hour MSM pretreatment w/thorough washing, no MSM enhancer • Test B: 24-hour MSM pretreatment w/brief rinsing, no MSM enhancer • MSM-enhanced: No MSM in 24-hour pre-treatment, w/MSM enhancer

[3] = Bovine cornea penetration, MSM as enhancer, methylene blue as active (Example 9); format: in vitro ADME
Description: In this example the same principal study design and protocol was used as described in Example 8. In this experiment, we selected methylene blue again as the species for which permeation enhancement was desired; however, as tissue model we selected bovine cornea. The bovine cornea was dissected from bovine eyes procured from slaughterhouses. We selected bovine cornea tissue as the test membrane because it is known to be a very difficult membrane to penetrate. Bovine cornea is about 4-6 times thicker than the human corneal membrane.

CN(C)c1ccc2nc3ccc(=[N+](C)C)cc-3sc2c1 [methylene blue]
enhancement factor of cumulative permeation when MSM is present in the donor solution ([1]; MSM 27 mg/mL versus control): ~2
Absorbance at 668 nm of receptor medium (methylene blue permeation) ([1]; Time 0.55 Hr, Control: no MSM): 0.021
Absorbance at 668 nm of receptor medium (methylene blue permeation) ([1]; Time 0.55 Hr, MSM 27 mg/mL in donor): 0.023
Absorbance at 668 nm of receptor medium (methylene blue permeation) ([1]; Time 1.9 Hr, Control: no MSM): 0.061
Absorbance at 668 nm of receptor medium (methylene blue permeation) ([1]; Time 1.9 Hr, MSM 27 mg/mL in donor): 0.176
Absorbance at 668 nm of receptor medium (methylene blue permeation) ([1]; Time 2.9 Hr, Control: no MSM): 0.162
Absorbance at 668 nm of receptor medium (methylene blue permeation) ([1]; Time 2.9 Hr, MSM 27 mg/mL in donor): 0.323
Absorbance at 668 nm of receptor medium (methylene blue permeation) ([1]; Time 4 Hr, Control: no MSM): 0.234
Absorbance at 668 nm of receptor medium (methylene blue permeation) ([1]; Time 4 Hr, MSM 27 mg/mL in donor): 0.433
Absorbance at 668 nm of receptor medium (methylene blue permeation) ([1]; Time 5.7 Hr, Control: no MSM): 0.283
Absorbance at 668 nm of receptor medium (methylene blue permeation) ([1]; Time 5.7 Hr, MSM 27 mg/mL in donor): 0.563
Absorbance at 668 nm of receptor medium (methylene blue permeation) ([1]; Time 6.9 Hr, Control: no MSM): 0.408
Absorbance at 668 nm of receptor medium (methylene blue permeation) ([1]; Time 6.9 Hr, MSM 27 mg/mL in donor): 0.738
permeation rate of enhanced solution relative to control ([2]; MSM 50 mg/mL in donor): approximately 2 times
permeation through MSM-pretreated membrane versus control ([2]; MSM pretreatment, brief rinsing, no MSM in donor): slightly higher
remaining enhancement after thorough washing of MSM-pretreated membrane ([2]; MSM pretreatment, thorough washing, no MSM in donor): no detectable remaining enhancement effect
Absorbance @ 668 nm of receptor medium (methylene blue permeation) ([2]; Time 0.27, Control: no MSM pre-treatment, no MSM enhancer): 0.01
Absorbance @ 668 nm of receptor medium (methylene blue permeation) ([2]; Time 0.27, Test A: MSM pretreatment w/thorough washing, no MSM enhancer): 0.01
Absorbance @ 668 nm of receptor medium (methylene blue permeation) ([2]; Time 0.27, Test B: MSM pretreatment w/brief rinsing, no MSM enhancer): 0.019
Absorbance @ 668 nm of receptor medium (methylene blue permeation) ([2]; Time 0.50, Control: no MSM pre-treatment, no MSM enhancer): 0.025
Absorbance @ 668 nm of receptor medium (methylene blue permeation) ([2]; Time 0.50, MSM-enhanced: no pre-treatment, MSM 50 mg/mL in donor): 0.06
Absorbance @ 668 nm of receptor medium (methylene blue permeation) ([2]; Time 0.50, Test A: MSM pretreatment w/thorough washing, no MSM enhancer): 0.031
Absorbance @ 668 nm of receptor medium (methylene blue permeation) ([2]; Time 0.50, Test B: MSM pretreatment w/brief rinsing, no MSM enhancer): 0.041
Absorbance @ 668 nm of receptor medium (methylene blue permeation) ([2]; Time 0.75, Control: no MSM pre-treatment, no MSM enhancer): 0.037
Absorbance @ 668 nm of receptor medium (methylene blue permeation) ([2]; Time 0.75, Test A: MSM pretreatment w/thorough washing, no MSM enhancer): 0.043
Absorbance @ 668 nm of receptor medium (methylene blue permeation) ([2]; Time 0.75, Test B: MSM pretreatment w/brief rinsing, no MSM enhancer): 0.055
Absorbance @ 668 nm of receptor medium (methylene blue permeation) ([2]; Time 1.00, Control: no MSM pre-treatment, no MSM enhancer): 0.052
Absorbance @ 668 nm of receptor medium (methylene blue permeation) ([2]; Time 1.00, MSM-enhanced: no pre-treatment, MSM 50 mg/mL in donor): 0.13
Absorbance @ 668 nm of receptor medium (methylene blue permeation) ([2]; Time 1.00, Test A: MSM pretreatment w/thorough washing, no MSM enhancer): 0.064
Absorbance @ 668 nm of receptor medium (methylene blue permeation) ([2]; Time 1.00, Test B: MSM pretreatment w/brief rinsing, no MSM enhancer): 0.079
Absorbance @ 668 nm of receptor medium (methylene blue permeation) ([2]; Time 1.50, Control: no MSM pre-treatment, no MSM enhancer): 0.078
Absorbance @ 668 nm of receptor medium (methylene blue permeation) ([2]; Time 1.50, MSM-enhanced: no pre-treatment, MSM 50 mg/mL in donor): 0.204
Absorbance @ 668 nm of receptor medium (methylene blue permeation) ([2]; Time 1.50, Test A: MSM pretreatment w/thorough washing, no MSM enhancer): 0.089
Absorbance @ 668 nm of receptor medium (methylene blue permeation) ([2]; Time 1.50, Test B: MSM pretreatment w/brief rinsing, no MSM enhancer): 0.118
Absorbance @ 668 nm of receptor medium (methylene blue permeation) ([2]; Time 2.00, Control: no MSM pre-treatment, no MSM enhancer): 0.114
Absorbance @ 668 nm of receptor medium (methylene blue permeation) ([2]; Time 2.00, MSM-enhanced: no pre-treatment, MSM 50 mg/mL in donor): 0.281
Absorbance @ 668 nm of receptor medium (methylene blue permeation) ([2]; Time 2.00, Test A: MSM pretreatment w/thorough washing, no MSM enhancer): 0.125
Absorbance @ 668 nm of receptor medium (methylene blue permeation) ([2]; Time 2.00, Test B: MSM pretreatment w/brief rinsing, no MSM enhancer): 0.16
Absorbance @ 668 nm of receptor medium (methylene blue permeation) ([2]; Time 24.00, Control: no MSM pre-treatment, no MSM enhancer): 0.92
Absorbance @ 668 nm of receptor medium (methylene blue permeation) ([2]; Time 24.00, MSM-enhanced: no pre-treatment, MSM 50 mg/mL in donor): 1.393
Absorbance @ 668 nm of receptor medium (methylene blue permeation) ([2]; Time 24.00, Test A: MSM pretreatment w/thorough washing, no MSM enhancer): 0.939
Absorbance @ 668 nm of receptor medium (methylene blue permeation) ([2]; Time 24.00, Test B: MSM pretreatment w/brief rinsing, no MSM enhancer): 1.112
enhancement factor of cumulative permeation when MSM is present in the donor solution ([3]; MSM 27 mg/mL versus control): > 3
lag time ([3]; MSM present in the donor solution): less than 12 hours
Absorbance @ 668 nm of receptor medium (methylene blue permeation) ([3]; Time 43.5 Hr, Control: no MSM): 0.024
Absorbance @ 668 nm of receptor medium (methylene blue permeation) ([3]; Time 43.5 Hr, MSM 27 mg/mL in donor): 0.093
Absorbance @ 668 nm of receptor medium (methylene blue permeation) ([3]; Time 52.75 Hr, Control: no MSM): 0.03
Absorbance @ 668 nm of receptor medium (methylene blue permeation) ([3]; Time 52.75 Hr, MSM 27 mg/mL in donor): 0.13
Absorbance @ 668 nm of receptor medium (methylene blue permeation) ([3]; Time 65 Hr, Control: no MSM): 0.035
Absorbance @ 668 nm of receptor medium (methylene blue permeation) ([3]; Time 65 Hr, MSM 27 mg/mL in donor): 0.163
Absorbance @ 668 nm of receptor medium (methylene blue permeation) ([3]; Time 75.5 Hr, Control: no MSM): 0.042
Absorbance @ 668 nm of receptor medium (methylene blue permeation) ([3]; Time 75.5 Hr, MSM 27 mg/mL in donor): 0.195
Absorbance @ 668 nm of receptor medium (methylene blue permeation) ([3]; Time 89 Hr, Control: no MSM): 0.057
Absorbance @ 668 nm of receptor medium (methylene blue permeation) ([3]; Time 89 Hr, MSM 27 mg/mL in donor): 0.213
Absorbance @ 668 nm of receptor medium (methylene blue permeation) ([3]; Time 97.5 Hr, Control: no MSM): 0.076
Absorbance @ 668 nm of receptor medium (methylene blue permeation) ([3]; Time 97.5 Hr, MSM 27 mg/mL in donor): 0.265
lag time ([3]; without MSM): about 24 hours

— US20060177430A1, “Treatment of ocular disorders with ophthalmic formulations containing methylsulfonylmethane as a transport enhancer” (Chakshu Research Inc, priority 2002, published 2006)
